Source: the NIST ThermoML archive (doi:10.1021/je8008073)
± gives the expanded uncertainty stated by the source.

Assay: wn = mass fraction of the nth substance listed
Conditions: Liquid; for mass density: Vibrating tube method; for viscosity: Falling or rolling sphere viscometry

CC(C)Cc1ccccc1 [(2-methylpropyl)benzene] + c1ccc2c(c1)CCCC2
Conditions	mass density [kg/m3]	viscosity [mPa·s]
293.15 K, 100 kPa, w2 = 0.5	907.9 ± 1	–
293.15 K, 2000 kPa, w2 = 0.5	909.1 ± 1	–
293.15 K, 4000 kPa, w2 = 0.5	910.3 ± 1	–
293.15 K, 6000 kPa, w2 = 0.5	911.6 ± 1	–
293.15 K, 8000 kPa, w2 = 0.5	913 ± 1	–
293.15 K, 10000 kPa, w2 = 0.5	914.3 ± 1	–
293.15 K, 12000 kPa, w2 = 0.5	915.4 ± 1	–
293.15 K, 14000 kPa, w2 = 0.5	916.6 ± 1	–
293.15 K, 16000 kPa, w2 = 0.5	917.7 ± 1	–
293.15 K, 18000 kPa, w2 = 0.5	918.8 ± 1	–
293.15 K, 20000 kPa, w2 = 0.5	920.1 ± 1	–
295.65 K, 100 kPa, w2 = 0.5	905.7 ± 1	–
295.65 K, 2000 kPa, w2 = 0.5	906.8 ± 1	–
295.65 K, 4000 kPa, w2 = 0.5	908.1 ± 1	–
295.65 K, 6000 kPa, w2 = 0.5	909.3 ± 1	–
295.65 K, 8000 kPa, w2 = 0.5	910.6 ± 1	–
295.65 K, 10000 kPa, w2 = 0.5	911.9 ± 1	–
295.65 K, 12000 kPa, w2 = 0.5	913.1 ± 1	–
295.65 K, 14000 kPa, w2 = 0.5	914.3 ± 1	–
295.65 K, 16000 kPa, w2 = 0.5	915.4 ± 1	–
295.65 K, 18000 kPa, w2 = 0.5	916.6 ± 1	–
295.65 K, 20000 kPa, w2 = 0.5	917.7 ± 1	–
298.15 K, 100 kPa, w2 = 0.48	901.3 ± 1	–
298.15 K, 100 kPa, w2 = 0.49	902.5 ± 1	–
298.15 K, 100 kPa, w2 = 0.5	903.6 ± 1	1.33 ± 0.05
298.15 K, 100 kPa, w2 = 0.51	905 ± 1	–
298.15 K, 100 kPa, w2 = 0.52	906 ± 1	–
298.15 K, 2000 kPa, w2 = 0.48	902.6 ± 1	–
298.15 K, 2000 kPa, w2 = 0.49	903.8 ± 1	–
298.15 K, 2000 kPa, w2 = 0.5	904.7 ± 1	–
298.15 K, 2000 kPa, w2 = 0.51	906.2 ± 1	–
298.15 K, 2000 kPa, w2 = 0.52	907.3 ± 1	–
298.15 K, 4000 kPa, w2 = 0.48	904 ± 1	–
298.15 K, 4000 kPa, w2 = 0.49	905.1 ± 1	–
298.15 K, 4000 kPa, w2 = 0.5	906.1 ± 1	1.37 ± 0.06
298.15 K, 4000 kPa, w2 = 0.51	907.6 ± 1	–
298.15 K, 4000 kPa, w2 = 0.52	908.8 ± 1	–
298.15 K, 6000 kPa, w2 = 0.48	905.3 ± 1	–
298.15 K, 6000 kPa, w2 = 0.49	906.4 ± 1	–
298.15 K, 6000 kPa, w2 = 0.5	907.5 ± 1	–
298.15 K, 6000 kPa, w2 = 0.51	908.8 ± 1	–
298.15 K, 6000 kPa, w2 = 0.52	910 ± 1	–
298.15 K, 8000 kPa, w2 = 0.48	906.6 ± 1	–
298.15 K, 8000 kPa, w2 = 0.49	907.7 ± 1	–
298.15 K, 8000 kPa, w2 = 0.5	908.8 ± 1	–
298.15 K, 8000 kPa, w2 = 0.51	910.1 ± 1	–
298.15 K, 8000 kPa, w2 = 0.52	911.2 ± 1	–
298.15 K, 10000 kPa, w2 = 0.48	907.8 ± 1	–
298.15 K, 10000 kPa, w2 = 0.49	909 ± 1	–
298.15 K, 10000 kPa, w2 = 0.5	910.1 ± 1	1.43 ± 0.06
298.15 K, 10000 kPa, w2 = 0.51	911.2 ± 1	–
298.15 K, 10000 kPa, w2 = 0.52	912.4 ± 1	–
298.15 K, 12000 kPa, w2 = 0.48	909 ± 1	–
298.15 K, 12000 kPa, w2 = 0.49	910.2 ± 1	–
298.15 K, 12000 kPa, w2 = 0.5	911.3 ± 1	–
298.15 K, 12000 kPa, w2 = 0.51	912.5 ± 1	–
298.15 K, 12000 kPa, w2 = 0.52	913.6 ± 1	–
298.15 K, 14000 kPa, w2 = 0.48	910.2 ± 1	–
298.15 K, 14000 kPa, w2 = 0.49	911.5 ± 1	–
298.15 K, 14000 kPa, w2 = 0.5	912.5 ± 1	–
298.15 K, 14000 kPa, w2 = 0.51	913.7 ± 1	–
298.15 K, 14000 kPa, w2 = 0.52	914.8 ± 1	–
298.15 K, 16000 kPa, w2 = 0.48	911.4 ± 1	–
298.15 K, 16000 kPa, w2 = 0.49	912.6 ± 1	–
298.15 K, 16000 kPa, w2 = 0.5	913.7 ± 1	–
298.15 K, 16000 kPa, w2 = 0.51	915 ± 1	–
298.15 K, 16000 kPa, w2 = 0.52	916 ± 1	–
298.15 K, 18000 kPa, w2 = 0.48	912.6 ± 1	–
298.15 K, 18000 kPa, w2 = 0.49	913.7 ± 1	–
298.15 K, 18000 kPa, w2 = 0.5	914.9 ± 1	–
298.15 K, 18000 kPa, w2 = 0.51	916.1 ± 1	–
298.15 K, 18000 kPa, w2 = 0.52	917.1 ± 1	–
298.15 K, 20000 kPa, w2 = 0.48	913.8 ± 1	–
298.15 K, 20000 kPa, w2 = 0.49	914.9 ± 1	–
298.15 K, 20000 kPa, w2 = 0.5	916.1 ± 1	–
298.15 K, 20000 kPa, w2 = 0.51	917.2 ± 1	–
298.15 K, 20000 kPa, w2 = 0.52	918.2 ± 1	–
300.65 K, 100 kPa, w2 = 0.5	901.5 ± 1	–
300.65 K, 2000 kPa, w2 = 0.5	902.9 ± 1	–
300.65 K, 4000 kPa, w2 = 0.5	904.2 ± 1	–
300.65 K, 6000 kPa, w2 = 0.5	905.4 ± 1	–
300.65 K, 8000 kPa, w2 = 0.5	906.8 ± 1	–
300.65 K, 10000 kPa, w2 = 0.5	908 ± 1	–
300.65 K, 12000 kPa, w2 = 0.5	909.2 ± 1	–
300.65 K, 14000 kPa, w2 = 0.5	910.4 ± 1	–
300.65 K, 16000 kPa, w2 = 0.5	911.6 ± 1	–
300.65 K, 18000 kPa, w2 = 0.5	912.8 ± 1	–
300.65 K, 20000 kPa, w2 = 0.5	914 ± 1	–
303.15 K, 100 kPa, w2 = 0.5	900 ± 1	–
303.15 K, 2000 kPa, w2 = 0.5	901.3 ± 1	–
303.15 K, 4000 kPa, w2 = 0.5	902.6 ± 1	–
303.15 K, 6000 kPa, w2 = 0.5	904 ± 1	–
303.15 K, 8000 kPa, w2 = 0.5	905.3 ± 1	–
303.15 K, 10000 kPa, w2 = 0.5	906.5 ± 1	–
303.15 K, 12000 kPa, w2 = 0.5	907.8 ± 1	–
303.15 K, 14000 kPa, w2 = 0.5	909 ± 1	–
303.15 K, 16000 kPa, w2 = 0.5	910.3 ± 1	–
303.15 K, 18000 kPa, w2 = 0.5	911.4 ± 1	–
303.15 K, 20000 kPa, w2 = 0.5	912.6 ± 1	–
